In patent publication US8883782B2, “Spiro-tetracyclic ring compounds as beta-secretase modulators and methods of use” (Amgen Inc., priority 2010, dated 2014):

How the values were obtained:
[1] = target: Beta Secretase enzyme (BACE) (Homo sapiens, UniProt P56817); assay: In vitro enzymatic BACE FRET (fluorescence resonance energy transfer) assay; assay type: biochemical; details: average IC50, enzyme assay; read-out: BACE 1 FRET assay
Outline: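 Fluorescence read after Tris quench to neutral pH. Reaction: 50 nM fluorophore/quencher peptide substrate, 1 h, in 0.05 M acetate pH 4.2, 10% DMSO final, 100 uM genapol.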

[2] = tested on: Aβ40 in conditioned medium of cells stably expressing Amyloid Precursor Protein (APP); assay: In vitro BACE cell-based assay (Aβ40 in conditioned medium, sandwich ELISA); details: Homo sapiens, HEK293, average IC50; read-out: HEK cell assay
Outline: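 The sandwich ELISA pairs pAb40 capture (3 h, 4 °C) with 6E10 detection (2 h, 4 °C) and a streptavidin-europium TRF read-out. Supernatants come from APP-expressing cells grown in 10% FBS DMEM.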

Beta Secretase enzyme (BACE), sequence (P56817 46-501, species assumed): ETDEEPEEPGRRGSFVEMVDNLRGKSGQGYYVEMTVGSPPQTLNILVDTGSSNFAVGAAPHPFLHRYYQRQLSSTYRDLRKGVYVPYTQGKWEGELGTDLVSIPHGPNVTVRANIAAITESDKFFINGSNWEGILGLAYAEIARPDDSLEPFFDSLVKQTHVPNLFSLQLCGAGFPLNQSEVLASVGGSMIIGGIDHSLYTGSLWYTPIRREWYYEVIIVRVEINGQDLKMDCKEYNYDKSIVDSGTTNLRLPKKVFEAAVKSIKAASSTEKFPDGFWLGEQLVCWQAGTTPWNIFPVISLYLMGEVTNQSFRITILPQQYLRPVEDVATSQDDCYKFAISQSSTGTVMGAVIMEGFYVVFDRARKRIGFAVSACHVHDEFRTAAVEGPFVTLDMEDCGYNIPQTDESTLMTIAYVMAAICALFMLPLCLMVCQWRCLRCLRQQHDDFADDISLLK

| SMILES | IC50 [1] | IC50 [2] |
| --- | --- | --- |
| NC1=N[C@@]2(CO1)c1cc(-c3ccc(F)nc3)ccc1Oc1c(F)cc(OC[C@H]3CC3(F)F)cc12 [Example 261, (4S)-2′-(((1R)-2,2-difluorocyclopropyl)methoxy)-4′-fluoro-7′-(6-fluoro-3-pyridinyl)spiro[1,3-oxazole-4,9′-xanthen]-2-amine] | 6.8 nM | 71.8 nM |
| CC(C)(C#N)COc1cc(F)c2c(c1)[C@]1(COC(N)=N1)c1cc(-c3ccc(F)nc3)ccc1O2 [Example 263, 3-(((4S)-2-amino-4′-fluoro-7′-(6-fluoro-3-pyridinyl)spiro[1,3-oxazole-4,9′-xanthen]-2′-yl)oxy)-2,2-dimethylpropanenitrile] | 2.3 nM | 13.3 nM |
| COc1cncc(-c2ccc3c(c2)[C@@]2(COC(N)=N2)c2cc(OCC(C)(C)C#N)cc(F)c2O3)c1 [Example 264, 3-(((4S)-2-amino-4′-fluoro-7′-(5-methoxy-3-pyridinyl)spiro[1,3-oxazole-4,9′-xanthen]-2′-yl)oxy)-2,2-dimethylpropanenitrile] | 1 nM | 8.1 nM |
| CC(C)(C#N)COc1cc(F)c2c(c1)[C@]1(COC(N)=N1)c1cc(-c3cncc(C#N)c3)ccc1O2 [Example 265, 5-((4S)-2-amino-7′-(2-cyano-2-methylpropoxy)-5′-fluorospiro[1,3-oxazole-4,9′-xanthen]-2′-yl)-3-pyridinecarbonitrile] | 0.8 nM | 4.7 nM |
| CC1(COc2cc(F)c3c(c2)[C@]2(COC(N)=N2)c2cc(-c4ccc(F)nc4)ccc2O3)COC1 [Example 266, (4S)-4′-fluoro-7′-(6-fluoro-3-pyridinyl)-2′-((3-methyl-3-oxetanyl)methoxy)spiro[1,3-oxazole-4,9′-xanthen]-2-amine] | 2.2 nM | 6.8 nM |
| CC1(COc2cc(F)c3c(c2)[C@]2(COC(N)=N2)c2cc(-c4cnccn4)ccc2O3)COC1 [Example 267, (4S)-4′-fluoro-2′-((3-methyl-3-oxetanyl)methoxy)-7′-(2-pyrazinyl)spiro[1,3-oxazole-4,9′-xanthen]-2-amine] | 3.1 nM | 12 nM |
| NC1=N[C@@]2(CO1)c1cc(-c3cnccn3)ccc1Oc1c(F)cc(N3C[C@@H]4C[C@H]3CO4)cc12 [Example 268, (4S)-4′-fluoro-2′-((1S,4S)-2-oxa-5-azabicyclo[2.2.1]hept-5-yl)-7′-(2-pyrazinyl)spiro[1,3-oxazole-4,9′-xanthen]-2-amine] | 10.5 nM | 26.1 nM |
| NC1=N[C@@]2(CO1)c1cc(-c3cnccn3)ccc1Oc1c(F)cc(N3CCOCC3)cc12 [Example 269, (4S)-4′-fluoro-2′-(4-morpholinyl)-7′-(2-pyrazinyl)spiro[1,3-oxazole-4,9′-xanthen]-2-amine] | 5.2 nM | 18.8 nM |
| NC1=N[C@@]2(CO1)c1cc(-c3cnccn3)ccc1Oc1c(F)cc(OCC3CCOCC3)cc12 [Example 270, (4S)-4′-fluoro-7′-(2-pyrazinyl)-2′-(tetrahydro-2H-pyran-4-ylmethoxy)spiro[1,3-oxazole-4,9′-xanthen]-2-amine] | 5.4 nM | 33.6 nM |
| NC1=N[C@@]2(CO1)c1cc(-c3cccnc3F)ccc1Oc1c(F)cc(N3CCC(F)(F)C3)cc12 [Example 271, (4S)-2′-(3,3-difluoro-1-pyrrolidinyl)-4′-fluoro-7′-(2-fluoro-3-pyridinyl)spiro[1,3-oxazole-4,9′-xanthen]-2-amine] | 0.5 nM | 4.1 nM |
| CC(C)(C#N)COc1cc(F)c2c(c1)[C@]1(COC(N)=N1)c1cc(-c3cncc(F)c3)ccc1O2 [Example 272, 3-(((4S)-2-amino-4′-fluoro-7′-(5-fluoro-3-pyridinyl)spiro[1,3-oxazole-4,9′-xanthen]-2′-yl)oxy)-2,2-dimethylpropanenitrile] | 0.5 nM | 5.9 nM |
| CC1(COc2cc(F)c3c(c2)[C@]2(COC(N)=N2)c2cc(-c4cncc(F)c4)ccc2O3)COC1 [Example 273, (4S)-4′-fluoro-7′-(5-fluoro-3-pyridinyl)-2′-((3-methyl-3-oxetanyl)methoxy)spiro[1,3-oxazole-4,9′-xanthen]-2-amine] | 0.7 nM | 3.1 nM |
| C[C@@H]1CN(c2cc(F)c3c(c2)[C@]2(COC(N)=N2)c2cc(-c4cncc(F)c4)ccc2O3)C[C@H](C)O1 [Example 274, (4S)-2′-((2R,6S)-2,6-dimethyl-4-morpholinyl)-4′-fluoro-7′-(5-fluoro-3-pyridinyl)spiro[1,3-oxazole-4,9′-xanthen]-2-amine] | 2.9 nM | 10.4 nM |
| COc1ccc(-c2cc(F)c3c(c2)[C@]2(COC(N)=N2)c2cc(-c4cccnc4F)ccc2O3)nn1 [Example 275, (4S)-4′-fluoro-7′-(2-fluoro-3-pyridinyl)-2′-(6-methoxy-3-pyridazinyl)spiro[1,3-oxazole-4,9′-xanthen]-2-amine] | 0.7 nM | 8 nM |
| NC1=N[C@@]2(CO1)c1cc(-c3cncc(F)c3)ccc1Oc1c(F)cc(N3C[C@@H]4C[C@H]3CO4)cc12 [Example 276, (4S)-4′-fluoro-7′-(5-fluoro-3-pyridinyl)-2′-((1S,4S)-2-oxa-5-azabicyclo[2.2.1]hept-5-yl)spiro[1,3-oxazole-4,9′-xanthen]-2-amine] | 0.8 nM | 3.3 nM |
| NC1=N[C@@]2(CO1)c1cc(-c3cncc(F)c3)ccc1Oc1c(F)cc(N3CCOCC3)cc12 [Example 277, (4S)-4′-fluoro-7′-(5-fluoro-3-pyridinyl)-2′-(4-morpholinyl)spiro[1,3-oxazole-4,9′-xanthen]-2-amine] | 1.5 nM | 6.4 nM |
| NC1=N[C@@]2(CO1)c1cc(-c3cncc(F)c3)ccc1Oc1c(F)cc(C3=CCCOC3)cc12 [Example 278, (4S)-2′-(5,6-dihydro-2H-pyran-3-yl)-4′-fluoro-7′-(5-fluoro-3-pyridinyl)spiro[1,3-oxazole-4,9′-xanthen]-2-amine] | 0.4 nM | 3.9 nM |
| COC1CN(c2cc(F)c3c(c2)[C@]2(COC(N)=N2)c2cc(-c4cccnc4F)ccc2O3)C1 [Example 281, (4S)-4′-fluoro-7′-(2-fluoro-3-pyridinyl)-2′-(3-methoxy-1-azetidinyl)spiro[1,3-oxazole-4,9′-xanthen]-2-amine] | 2 nM | 5.4 nM |
| CC1(C)CN(c2cc(F)c3c(c2)[C@]2(COC(N)=N2)c2cc(-c4cncc(F)c4)ccc2O3)CCO1 [Example 282, (4S)-2′-(2,2-dimethyl-4-morpholinyl)-4′-fluoro-7′-(5-fluoro-3-pyridinyl)spiro[1,3-oxazole-4,9′-xanthen]-2-amine] | 2 nM | 8.2 nM |
| NC1=N[C@@]2(CO1)c1cc(-c3cncc(F)c3)ccc1Oc1c(F)cc(N3CC4CCC(C3)O4)cc12 [Example 283, (4S)-4′-fluoro-7′-(5-fluoro-3-pyridinyl)-2′-(8-oxa-3-azabicyclo[3.2.1]oct-3-yl)spiro[1,3-oxazole-4,9′-xanthen]-2-amine] | 0.4 nM | 3.2 nM |
| NC1=N[C@@]2(CO1)c1cc(-c3cncc(F)c3)ccc1Oc1c(F)cc([C@@H]3CCCOC3)cc12 [Example 284, (4S)-4′-fluoro-7′-(5-fluoro-3-pyridinyl)-2′-((3S)-tetrahydro-2H-pyran-3-yl)spiro[1,3-oxazole-4,9′-xanthen]-2-amine] | 2.2 nM | 13.5 nM |
| NC1=N[C@@]2(CO1)c1cc(-c3cncc(F)c3)ccc1Oc1c(F)cc([C@H]3CCCOC3)cc12 [Example 285, (4S)-4′-fluoro-7′-(5-fluoro-3-pyridinyl)-2′-((3R)-tetrahydro-2H-pyran-3-yl)spiro[1,3-oxazole-4,9′-xanthen]-2-amine] | 2.4 nM | 20.4 nM |
| NC1=N[C@@]2(CO1)c1cc(-c3cccnc3F)ccc1Oc1c(F)cc([C@@H]3CCCOC3)cc12 [Example 286, (4S)-4′-fluoro-7′-(2-fluoro-3-pyridinyl)-2′-((3S)-tetrahydro-2H-pyran-3-yl)spiro[1,3-oxazole-4,9′-xanthen]-2-amine] | 1.9 nM | 15.8 nM |
| NC1=N[C@@]2(CO1)c1cc(-c3cccnc3F)ccc1Oc1c(F)cc([C@H]3CCCOC3)cc12 [Example 287, (4S)-4′-fluoro-7′-(2-fluoro-3-pyridinyl)-2′-((3R)-tetrahydro-2H-pyran-3-yl)spiro[1,3-oxazole-4,9′-xanthen]-2-amine] | 1.7 nM | 21.7 nM |
| NC1=N[C@@]2(CO1)c1cc(-c3cncc(F)c3)ccc1Oc1c(F)cc(C3=CCOC3)cc12 [Example 288, (4S)-2′-(2,5-dihydro-3-furanyl)-4′-fluoro-7′-(5-fluoro-3-pyridinyl)spiro[1,3-oxazole-4,9′-xanthen]-2-amine] | 0.3 nM | 4.1 nM |
| NC1=N[C@@]2(CO1)c1cc(-c3ccc(F)nc3)ccc1Oc1c(F)cc(-c3ncccn3)cc12 [Example 289, (4S)-4′-fluoro-7′-(6-fluoro-3-pyridinyl)-2′-(2-pyrimidinyl)spiro[1,3-oxazole-4,9′-xanthen]-2-amine] | 2.5 nM | 14.6 nM |
| COc1ccc(-c2cc(F)c3c(c2)[C@]2(COC(N)=N2)c2cc(-c4cncc(F)c4)ccc2O3)nn1 [Example 290, (4S)-4′-fluoro-7′-(5-fluoro-3-pyridinyl)-2′-(6-methoxy-3-pyridazinyl)spiro[1,3-oxazole-4,9′-xanthen]-2-amine] | 0.8 nM | 8.1 nM |
| NC1=N[C@@]2(CO1)c1cc(-c3cccnc3F)ccc1Oc1c(F)cc(C3=CCOC3)cc12 [Example 291, (4S)-2′-(2,5-dihydro-3-furanyl)-4′-fluoro-7′-(2-fluoro-3-pyridinyl)spiro[1,3-oxazole-4,9′-xanthen]-2-amine] | 0.6 nM | 8 nM |
| Cc1ccc(-c2cc(F)c3c(c2)[C@]2(COC(N)=N2)c2cc(-c4cncc(F)c4)ccc2O3)nn1 [Example 292, (4S)-4′-fluoro-7′-(5-fluoro-3-pyridinyl)-2′-(6-methyl-3-pyridazinyl)spiro[1,3-oxazole-4,9′-xanthen]-2-amine] | 2 nM | 31.6 nM |
